Experimental data: patent US20100172925A1, “HLA-A2-RESTRICTED T-CELL EPITOPES OF THE RESPIRATORY SYNCYTIAL VIRUS FUSION PROTEIN AS PEPTIDE-BASED VACCINES” (priority 2009, published 2010)

Tests used:
[1] = test system: CD4+ lymphocytes of peptide-immunized HLA-Tg B6 mice; test: CD4+ T cell proliferation (CFSE, cell dividing index) in peptide-immunized mice; type: in vivo, mouse; settings: mice immunized s.c. twice with 50 μg peptide in IFA; 8 days of restimulation by the same peptide
Method: (§1) HLA-A2.1 transgenic C57BL/6 mice were anesthetized with isoflurane and primed with 1×10^7 pfu/50 μL of rAd-F0, rAd-LacZ or 1×10^4 live RSV B1 via the intranasal (i.n.) route. Twenty days later, animals were boosted i.n. with the same dose of respective immunogens. For peptide-based vaccination, transgenic mice were immunized subcutaneously (s.c.) with 50 μg of individual synthetic peptides emulsified in 100 μL of incomplete Freund's adjuvant (IFA) and then boosted s.c. with the same dose of respective peptides mixed with IFA one week later. Mice were sacrificed 7 days after the boost. The splenocytes were isolated and stimulated with synthetic CD8 epitope peptides in the presence of 5-(6)-carboxyfluorescein diacetate succinimidyl ester (CFSE) for 4 and 8 days. Proliferated CD4^+ or CD8^+ T cell counts were analyzed by flow cytometry (BD FACSCalibur) using PE-labeled specific antibody against CD4 or CD8, respectively. […]
(§2) To test the immunogenicity of these peptides, HLA-Tg B6 mice were immunized twice with individual IFA-emulsified peptide No. 3, 14, 23, or peptide 17 at day 0 and day 7. […] Proliferated CD4^+ and CD8^+ lymphocytes in response to CD8 epitope were counted by a flow cytometry analysis using specific anti-CD4 and CD8 antibodies conjugated with FITC, respectively. […]

[2] = test system: CD8+ lymphocytes of peptide-immunized HLA-Tg B6 mice; test: CD8+ T cell proliferation (CFSE, cell dividing index) in peptide-immunized mice; type: in vivo, mouse; settings: mice immunized s.c. twice with 50 μg peptide in IFA; 8 days of restimulation by the same peptide
Method: as §1, §2

RSV-B1 = test: Viral load in lungs after live RSV-B1 challenge of peptide-immunized mice; type: in vivo, mouse; settings: two doses of peptide; challenge 10^6 pfu live RSV-B1; 4 days post challenge
Method: as §1, with “The splenocytes were isolated and stimulated with synthetic CD8 epitope peptides in the presence of 5-(6)-carboxyfluorescein diacetate succinimidyl ester (CFSE) for 4 and 8 days.” left out
In FIG. 5, mice were immunized via the intranasal route twice with the immunogen as indicated before they were intranasally challenged with 10^6 pfu of live RSV B1. Viral plaques in the lungs of the individual mice were determined 4 days post the challenge using plaque-forming assay as described in the methods. Results were expressed as the plaque number for each mouse. […] 14 and subsequently challenged with 1×10^6 pfu of live RSV-B1 viruses, as compared to 282±116 plaques detected in the lung tissues of mice immunized with the adjuvant IFA alone. […]

HLA-A*0201 molecules = target: T1, HLA-A*0201 molecules (Homo sapiens, UniProt P04439, D140Y/D185E/D98H/E176V/E277Q/G131W/G231S/I119V/I121R/I166T/I218V/L300P/L318F/N151K/N90K/P208A/P217A/Q86G/Q94H/R138H/R169H/T345S); test: T2 cell-stabilization assay (T2-based HLA-A*0201 binding); settings: T2 cells, peptide 50 μg/mL
T1 construct: T2 cell (which expressing HLA-A*0201)-stabilization assay; endogenous in cells; host or cells: T2 cells

KVLDLKNYI (F214-222) [compound 13, 9-mer synthetic peptide from the F protein of RSV-B1 strain]
CD4+ cell proliferation [1]: did not manifest cell proliferation | CD8+ lymphocyte proliferation [2]: did not elicit CD8^+ lymphocyte proliferation | protection against live RSV challenge (lung viral plaques, in words) (RSV-B1): not protected | binding activity to HLA-A*0201 molecules (in words) (HLA-A*0201 molecules): strong binding activity | binding affinity higher than the baseline (HLA-A*0201 molecules; moderate binding affinity): 10%
